In patent publication US6977254B2, “Hydroxy cyclohexenyl phenyl carboxamides tocolytic oxytocin receptor antagonists” (Wyeth, priority 2001, dated 2005):

Target: T1, human vasopressin V1a receptor subtype (Homo sapiens, UniProt P37288)
T1 construct: host or cells: CHO cells, stably transfected (pZeoSV vector for the Thibonnier line); membranes
Test: Vasopressin binding in CHO cell membranes expressing human vasopressin V1a subtype receptors ([3H]Manning ligand)
Details: 100 nM, value without parentheses
Description: Vasopressin Binding in Chinese Hamster Ovary Cell Membranes Expressing Human Vasopressin V1a Subtype Receptors
Chinese hamster ovary cells (CHO cells) stably transfected with the human vasopressin V1a subtype receptors were either obtained from Biosignal Inc., 1744 rue Williams, Montreal, Quebec, Canada or obtained from M. Thibonnier, Case Western Reserve University School of Medicine, Cleveland, Ohio.
A. Passaging and Amplification of Cells:
CHO cells transfected with the human vasopressin V1a subtype receptors obtained from M. Thibonnier (pZeoSV vector) are allowed to grow to confluency (approx. >90%) in T-150 flasks under sterile conditions, in a cell culture medium of F-12 Nutrient Mixture (HAM) with L-glutamine (Gibco Cat. #11765-054) containing 15 mM HEPES (Gibco Cat. #15630-080), 1% antibiotic/antimycotic (add 5 mL 100×, Gibco Cat. #15240-062 per 500 mL F-12), 250 μg/mL Zeocin (add 1.25 mL of 100 mg/mL Invitrogen R-250-01 per 500 mL F-12) and 10% Fetal Bovine Serum (Qualified, heat inactivated, Gibco Cat. #16140-063). The medium is removed by aspiration and the cells are washed with 10 mL of Hank's Balanced Salt solution (Gibco Cat. #14175-095). The salt solution is removed by aspiration and the cells are trypsinized with 5 mL of trypsin-EDTA (0.05% trypsin, 0.53 mM EDTA-4Na, Gibco Cat. #25300-070) for 1 min. The trypsin is removed by aspiration and the cells dislodged by tapping. Cell Culture medium (eg, 30 mL for 1:30 split) is immediately added and mixed well to inactivate trypsin. 1 mL of detached cells is added to new culture flasks containing fresh cell culture medium (eg, into 25 mL per T-150 flask), and mixed gently. The cells are incubated at 37° C. in 5% CO2. The medium is changed at 3 to 4 days interval (or as appropriate). The cells grow to confluency (approx. >75%-95%) within 7-8 days. All steps are done under sterile conditions.
The cells are washed twice gently with Hank's Balanced Salt solution (e.g,. use 10 mL per T-150 flask). The excess is removed and the cells are bathed for 15-30 min. in an enzyme-free Cell Dissociation Buffer (e.g. use 8 mL Hank's Based, Gibco Cat. #13150-016 per T-150 flask) until the cells are loosened. The contents are transferred to centrifuge tubes (50 mL size) kept in ice bath. All subsequent steps are done at 4° C. The tubes are centrifuged at 300×g for 15 min (1380 rpm on SORVAL, Model RT6000D, using rotor for 50 mL tubes). The supernatant is discarded and the cells suspended in homogeneizing buffer(10 mM Tris-HCl containing 0.25 M sucrose and 1 mM EDTA, pH 7.4) ensuring that the volume of the buffer is about ten times the volume of the cell pellet. The cells are pooled into a centrifuge tube (50 mL) and homogenized with Polytron at setting 6 for 10 sec. The homogenate is transferred into a Potter-Elvjehm homogenizer and homogenized with 3 strokes. The homogenate is centrifuged at 1500×g for 10 min at 4° C. (3100 rpm using SORVAL, model RT6000D, using rotor for 50 mL tubes). The pellet is discarded. The supernatant is centrifuged at 100,000×g for 60 min. at 4° C. (Beckman L8-80M ultracentrifuge; spin at 37,500 rpm with rotor type 70 Ti for 50 mL tubes; 38,000 rpm with type 80Ti for 15 mL tubes; or 35,800 rpm with rotor type 45Ti). The supemantant is discarded and the pellet suspended in 3 to 4 mL of Tris buffer (50 mM TRIS-HCl, pH 7.4). The protein content is estimated by the Bradford or Lowry method. The volume of the membrane suspension is adjusted with the membrane buffer (50 mM Tris-HCl containing 0.1% BSA and 0.1 mM PMSF) to give 3.0 mg/mL (or as appropriate) of protein. The membranes are aliquoted and stored at −70° C.
C. Radioligand Binding Assay: […]

T1 sequence (P37288 whole entry): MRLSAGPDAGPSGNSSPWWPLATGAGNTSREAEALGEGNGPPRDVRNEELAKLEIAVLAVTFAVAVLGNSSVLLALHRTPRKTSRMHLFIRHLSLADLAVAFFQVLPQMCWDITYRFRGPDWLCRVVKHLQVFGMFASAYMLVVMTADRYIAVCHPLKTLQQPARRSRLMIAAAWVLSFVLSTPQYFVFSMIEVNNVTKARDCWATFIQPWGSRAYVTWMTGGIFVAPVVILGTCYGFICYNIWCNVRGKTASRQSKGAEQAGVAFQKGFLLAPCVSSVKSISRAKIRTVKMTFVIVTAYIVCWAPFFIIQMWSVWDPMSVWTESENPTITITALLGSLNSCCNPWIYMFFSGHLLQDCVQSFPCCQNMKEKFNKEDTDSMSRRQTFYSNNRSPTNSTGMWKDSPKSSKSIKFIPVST

Row | SMILES | V1a % inhibition @ 100 nM [%]
1 | Cc1cc(C(=O)N2Cc3ccc(C(=O)N(CCO)CCO)n3Cc3ccccc32)ccc1C1=CCCc2ccccc21 [Example 16, {10-[4-(3,4-Dihydro-naphthalen-1-yl)-3-methyl-benzoyl]-10,11-dihydro-5H-pyrrolo[2,1-c][1,4]benzodiazepin-3-yl}-3-carboxylic acid bis-(2-hydroxy-ethyl)-amide] | 6
2 | Cc1cc(C(=O)N2Cc3ccc(C(=O)N4CCN(CCO)CC4)n3Cc3ccccc32)ccc1C1=CCCCC1 [Example 17, {10-[4-(1-Cyclohex-1-en-1-yl)-3-methylbenzoyl]-10,11-dihydro-5H-pyrrolo[2,1-c][1,4]benzodiazepin-3-yl}[4-(2-hydroxyethyl)-1-piperazinyl]methanone] | 31
